Patent US20100003271A1, “NITRIC OXIDE INCREASES SWITCHING OF T CELLS INTO T REGULATORY CELLS” (BOARD OF REGENTS OF THE UNIVERSITY OF TEXAS SYSTEM, priority 2006, published 2010)

Experiments:
Format in all cases: cell-based, human
[1] = tested on: PBLs challenged with HLA-mismatched alloantigen; experiment: Number of Treg cells generated in alloactivated PBL culture; conditions: 100 μM SNAP, 60×10^6 PBLs, 5-day culture, FIG. 5A
Description: Alloactivation was set up by co-culturing responder PBLs (1-2×10^6 cells/ml) in a total volume of 35 ml of RPMI-10 with fully HLA mismatched gamma-irradiated (30 Gy) stimulators (1:1 ratio) in the presence of SNAP/DMSO. After 5 days, cells were washed and stained with anti-CD4-FITC and anti-CD25-PE Abs to isolate CD4+CD25^high and CD4+CD25^intermediate populations by FACS sorting. These cell populations were then added to fresh syngeneic PBLs (1×10^5) at different responder/regulator cell ratios (1/0, 1/0.005, 1/0.01, 1/0.05, 1/0.1, 1/0.5, and 1/1) with the same HLA-mismatched irradiated stimulators (1×10^5). Cells cultured in a 200 μl volume of RPMI-10 in 96-well round-bottomed plates for 5 days and pulsed with 1 μCi of [^3H]-thymidine for last 16 hours before harvesting. Cells were collected onto glass filters using an automated multi-sample harvester and the amount of [^3H]-thymidine incorporation was measured with a scintillation counter (Packard, Meridan, Conn.). Proliferative responses are expressed as the mean [^3H]-thymidine incorporation (counts per minute [cpm]) of triplicate wells±SD. In identical experiments, PBLs were activated with PHA (10 μg/ml) to examine the ability of NO-induced CD4+CD25^high population to suppress proliferation of alloantigen-specific MLC.

[2] = tested on: PBLs; experiment: Generation of CD4+CD25highCD127- Treg cells in PBL culture (FACS)
Description: PBLs or purified T cells were either left untreated or treated with 10 μg/ml phytohemagglutanin (PHA, Sigma-Aldrich) at 1×10^6 cells/2 mL in 24-well plates in the absence or presence of various concentrations of SNAP-DMSO, DMSO or SNP and cultured in RPMI-10 for 5 days. Cells were then harvested and stained with anti-human CD4-PerCP, anti-human CD25-APC and anti-human CD127-PE Abs. Flow cytometry analysis measured CD4^+CD25^high CD127^low versus CD4^+CD25^highCD127^high populations using FACSAria with Diva program or FACSCalibur with CellQuest software (BD Pharmingen, San Diego, Calif.).

[3] = tested on: CD4+CD25- cells; experiment: CFSE labeling and T cell co-culture assay (switching of CD4+CD25- cells); conditions: in the presence of Treg cells
Description: The CD4^+CD25^negative and CD4^+CD25^high T cell populations were isolated from T cells by cell sorting (FACSAria). Next, CD4^+CD25^negative cells were labeled with carboxyfluorescein diacetate succinimidyl ester (CFDA-SE; cat no C1157, Invitrogen) as described elsewhere (Hans et al., 2005). A stock solution of CFSE (5 mM) was diluted with PBS and added to the CD4^+CD25^negative cells at final concentration of 1 µM per 1×10^6 cells (20 minutes at 37° C.). After three washings, CFSE-labeled CD4^+CD25^negative cells (1×10^6) were co-cultured without or with CD4^+CD25^high cells at 10:1 ratio without or with titrated SNAP or DMSO and 6 hours later cells were activated with PHA (10 μg/ml). Following 5 days cells were harvested and stained with anti-human CD25-APC and anti-human CD127-PE Abs to measure transformation of CD^4+CD25^negative cells to CD25^+CD127^negative cells by FACS. The same cells were added to a primary syngeneic MLC at responder/regulator cell ratios (1/0, 1/0.25, 1/0.5, and 1/1). Cells were cultured for 5 days and the [^3H]-thymidine incorporation was measured as described above.

[4] = tested on: PHA-activated PBLs; experiment: Intracellular FoxP3 staining of CD4+CD25highCD127- population; conditions: PHA-activated PBLs, 30, 50, 100 μM SNAP, 5 days, FIG. 3
Description: Foxp3 intracellular staining was carried out using the FITC anti-human Foxp3 staining kit (BDBiosciences, San Diego, Calif.; Cat no 71-5776-40). In brief, PBLs from various groups were incubated with anti-human CD4-PerCP, anti-human CD25-APC and anti-human CD127-PE Abs for 20 minutes at room temperature for surface staining of CD4, CD25 and CD127 molecules, respectively. Cells were then washed, and fixed with Fix/Perm solution (30 minutes at 4° C.) and permeabilized with permeabilization buffer followed by blocking with rat serum (15 minutes at 4° C.). Cells were then stained with FITC-conjugated anti-FoxP3 or isotype control Ab (30 minutes at 4° C.). Cells were analyzed by flow cytometry for intracellular FoxP3 levels in CD4^+CD25^high/CD127^low versus CD4^+CD25^high/CD127^high cells on a FACSAria.

CC(=O)NC(C(=O)O)C(C)(C)SN=O (racemic) [SNAP, S-Nitroso-N-acetyl-DL-penicillamine]
number of Treg cells generated relative to culture without SNAP [1]: ~3 fold | levels of CD4+CD25+CD127- Treg cells ([2]; PHA-activated PBLs, 5-day culture, FIG. 2B): significantly increased | increase in generation of CD4+CD25+CD127-FoxP3+ Treg cells ([2]; low NO concentrations (10-100 μM nitrite)): 3 fold | number of CD4+CD25+CD127- Treg cells ([2]; non-activated PBLs): did not affect | switching of CD4+CD25- cells into CD4+CD25+CD127-FoxP3+ T regulatory (Tr1) cells [3]: elevated switching | generation of Foxp3-positive CD4+CD25+CD127- Treg cells [4]: induces generation of Foxp3-positive
